Experiments:
[1] = tested on: Pseudomonas PAO1 strain (ATCC 15692); assay: Growth of test microbe (turbidity OD600), 96-well microplate culture; format: cell-based
Outline: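 P. aeruginosa PAO1 diluted in Mueller Hinton Broth, exposed to test compound (ethanol stock evaporated onto DMSO in wells) and grown static at 30° C for 24 h; growth read as OD600. Growth inhibition % = (1 − compound OD600/ethanol-control OD600) × 100.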

[2] = tested on: cooling water taken from a water cooling tower; assay: Aqueous system model (annular reactor): number of bacterial cells in water at inlet and outlet (R2A agar); format: cell-based; details: Test Example 4; 15 ppm in cooling water; solvent control also about 10^4
Method: Biofilm formation inhibitory activity of p-toluquinone (Tokyo Kasei) was evaluated by an aqueous system model using an annular reactor (Art Science Co., Ltd.) having a 100 mL-volume culture tank. In the culture tank of the annular reactor, a cylindrical rotating body rotating at a speed of 160 rounds per minute was installed. To the rotating body, 12 test pieces were attached in advance. These test pieces were taken out at predetermined time intervals and biofilm formed on the test pieces was quantified. From a water cooling tower provided on a building rooftop and actually used, cooling water was taken and supplied to the annular reactor culture vessel (maintained at 30° C.) at a flow rate of 10 mL per minute; at the same time, an ethanol solution (15 g/L) of p-toluquinone was separately supplied to the annular reactor culture vessel by a syringe pump YSP-201 (manufactured by YMC) at a flow rate of 10 μL per minute (p-toluquinone concentration in cooling water in the culture tank was 15 ppm). The test pieces (n=2) taken out from the culture tank at predetermined time intervals were stained with 0.1% crystal violet, thoroughly washed twice with physiological saline and recovered in ethanol (15 mL). The absorbance (OD570) was measured to obtain the amount of the biofilm formed. […] Thereafter, the number of bacteria cells was measured. […]

SMILES: CC1=CC(=O)C=CC1=O [Compound a, p-Toluquinone]
- Growth OD600 ([1]; final concentration 7 ppm, EtOH control 0.5913): 0.645
- Growth inhibition (%) ([1]; final concentration 17 ppm): 14.2%
- Growth OD600 ([1]; final concentration 20 ppm, EtOH control 0.6346): 0.5907
- Growth inhibition (%) ([1]; final concentration 33 ppm): 15.4%
- Growth OD600 ([1]; final concentration 33 ppm, EtOH control 0.668): 0.6284
- Growth inhibition (%) ([1]; final concentration 66 ppm): — (No growth inhibition or no BF inhibition)
- Growth OD600 ([1]; final concentration 67 ppm, EtOH control 0.628): 0.5489
- Growth inhibition (%) ([1]; final concentration 99 ppm): — (No growth inhibition or no BF inhibition)
- Growth inhibition (%) ([1]; final concentration 116 ppm): 1.8%
- Growth inhibition (%) ([1]; final concentration 132 ppm): 1.2%
- Growth OD600 ([1]; final concentration 200 ppm, EtOH control 0.6045): 0.3857
- Growth OD600 ([1]; final concentration 333 ppm, EtOH control 0.6088): 0.3334
- microbial growth (in words) ([1]; high concentration range of 200 ppm or more): inhibited
- number of bacterial cells at the inlet or outlet of the reactor [2]: about 10^4 cells/mL
